Here are results for 3 compounds from patent publication US20150164824A1, “METHODS AND COMPOSITIONS USEFUL FOR IMPROVING BONE AND JOINT HEALTH” (ABBOTT LABORATORIES, priority 2012, published 2015).

In assay [1] the test system is Human osteoclast precursors. In words: OsteoLyse assay: osteoclast differentiation and collagen degradation in vitro. Format: cell-based. To be noted: relative to standard control wells (100%); day seven of culture; FIG. 1. Here is the method:
A 96-well OsteoLyse™ assay system (commercially available from Lonza Biosciences, Walkersville, Md.) was used for this evaluation. Specifically, a 96-well OsteoLyse™ plate was coated with fluorophore-derivatized human bone matrix (europium conjugated collagen). Human osteoclast precursors, at a density of 10,000/200 μl of differentiation medium (containing M-CSF and RANK Ligand) were seeded onto the surface of the plate. Triplicate cell culture wells were treated with one of: Curcumin in DMSO; Vitamin K2 in ethanol; combination of Curcumin and Vitamin K2; and alendronate (control). Cell culture wells with only differentiation medium were treated as standard control wells. After six days of culture, old medium was removed and 200 μl of fresh differentiation medium was added to all wells. Twenty-four hours later, on day seven of culture, 10 μl of medium supernatant was used for fluorescence measurement. For the measurement, 10 μl of medium supernatant was added to 100 μl of fluorophore-releasing agent (Lonza Bioscience, Walkersville, Md.) in a black-walled 96-well plate. The samples were briefly mixed and fluorescence was determined using a time-resolved fluorescence fluorimeter (Spectramax M5, available from Molecular Devices, Sunnyvale, Calif., with excitation at 340 nm and emission at 615 nm) over a 400-microsecond time period after an initial delay of 400 microseconds. Osteoclast differentiation in a standard control cell culture well was assumed to be 100% and relative osteoclast differentiation, with respect to control wells, in other cell culture wells was calculated and plotted on the bar graph shown in FIG. 1.

Assay [2] deals with Primary human osteoclast precursors. In words: OsteoAssay plate / CalciFluor assay: bone resorption by osteoclasts. Format: cell-based. To be noted: relative to standard control cells; calcium release, day eight of culture; FIG. 2. The method, then:
A 96-well OsteoAssay™ plate (commercially available from Lonza Biosciences, Walkersville, Md.) was used for this evaluation. Specially, a 96-well OsteoAssay™ plate was coated with a thin-layer of adherent human bone particles. Primary human osteoclast precursors, at a density of 10,000/200 μl of differentiation medium (containing M-CSF and RANK Ligand), were seeded onto the surface of the plate. Triplicate cell culture wells were treated with one of: Curcumin in DMSO; Vitamin K2 in ethanol; combination of Curcumin and Vitamin K2; and alendronate (control). Cell culture wells with only differentiation medium were treated as standard control wells. After six days of culture, old medium was removed and 200 μl of fresh basal resorption medium containing M-CSF and RANK Ligand was added to all wells. Forty-eight hours later, on day eight of culture, 10 μl of medium supernatant was used for calcifluor assay. […] The samples were briefly mixed and fluorescence was determined using a fluorimeter (Spectramax M5, available from Molecular Devices, Sunnyvale, Calif., with excitation at 551 nm and emission at 577 nm). The concentration of calcium in each well was calculated based on the standard curve. […] The relative percentage inhibition of bone resorption, with respect to standard control cells, was calculated and plotted on the bar graph as shown in FIG. 2.

Take `NCCCC(O)(P(=O)(O)O)P(=O)(O)O` [Alendronate, reference compound]: the “inhibition of osteoclast differentiation” value in assay [1] was found to be 53.6%. For the compound `COc1cc(/C=C/C(=O)CC(=O)/C=C/c2ccc(O)c(OC)c2)ccc1O` [Curcumin, (1E,6E)-1,7-bis(4-hydroxy-3-methoxyphenyl)-1,6-heptadiene-3,5-dione], the “inhibition of osteoclast differentiation” value in assay [1] is “did not significantly inhibit”. Also, the “inhibition of bone resorption” value in assay [2] is on record as 39.7%. The matching figures for menaquinone [Vitamin K2]: “did not significantly inhibit” and 31.9%.
